Test results reported in patent US12358948B2, “Neurotensinergic agonists and methods of using same preventing or treating pain” (priority 2019, dated 2025).
Where a SMILES comes first, the peptide text is derived from it. Bridges are numbered along the chain shown (N, C = ends). [ ]: non-standard residue; d: D form. Phe(4-CF3) = N[C@@H](Cc1ccc(C(F)(F)F)cc1)C(=O)O; Phe(4-Cl) = N[C@@H](Cc1ccc(Cl)cc1)C(=O)O; Ala(cHept) = N[C@@H](CC1CCCCCC1)C(=O)O; Phe(4-I) = N[C@@H](Cc1ccc(I)cc1)C(=O)O; Ala(cPent) = N[C@@H](CC1CCCC1)C(=O)O; 2Pal = N[C@@H](Cc1ccccn1)C(=O)O; 3Pal = N[C@@H](Cc1cccnc1)C(=O)O; dAllylGly = C=CC[C@@H](N)C(=O)O; Cit = NC(=O)NCCC[C@H](N)C(=O)O; AllylGly = C=CC[C@H](N)C(=O)O; Chg = N[C@H](C(=O)O)C1CCCCC1; Pen = CC(C)(S)[C@H](N)C(=O)O; R5 = C=CCCC[C@@](C)(N)C(=O)O; hLys = NCCCCC[C@H](N)C(=O)O; Dab = NCC[C@H](N)C(=O)O; Nva = CCC[C@H](N)C(=O)O; Dap = NC[C@H](N)C(=O)O

Experiments:
hNTS1 receptor = target: T1, hNTS1 receptor (Homo sapiens, UniProt P30989); assay: Competitive radioligand binding assay on the hNTS1 receptor; settings: displacement of 125I-[Tyr3]-NT, membranes of CHO-K1 cells expressing hNTS1; read-out: IC50 NTS1
T1 construct: membranes prepared from them
In short: (§1)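 Membranes from CHO-K1 cells expressing hNTS1 (15 µg, […] ¹²⁵I-[Tyr³]-NT) or 1321N1 cells expressing hNTS2 (50 µg, […] radioligand) were incubated with analogues at 10⁻¹¹–10⁻⁴ M for 60 min at 25 °C in Tris-HCl pH 7.5/0.2% BSA. Filtration and γ-counting followed; nonspecific binding was defined with 10⁻⁵ M NT(8-13), and IC50 was obtained by one-site fit.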

hNTS2 receptor = target: T2, hNTS2 receptor (Homo sapiens, UniProt O95665); assay: Competitive radioligand binding assay on the hNTS2 receptor; settings: for IC50: displacement of 125I-[Tyr3]-NT, membranes of 1321N1 cells expressing hNTS2, read-out: IC50 NTS2 (converted); for Selectivity: ratio IC50 for NTS1 : IC50 for NTS2
T2 construct: membranes prepared from them
In short: as §1

T1 sequence (P30989 whole entry): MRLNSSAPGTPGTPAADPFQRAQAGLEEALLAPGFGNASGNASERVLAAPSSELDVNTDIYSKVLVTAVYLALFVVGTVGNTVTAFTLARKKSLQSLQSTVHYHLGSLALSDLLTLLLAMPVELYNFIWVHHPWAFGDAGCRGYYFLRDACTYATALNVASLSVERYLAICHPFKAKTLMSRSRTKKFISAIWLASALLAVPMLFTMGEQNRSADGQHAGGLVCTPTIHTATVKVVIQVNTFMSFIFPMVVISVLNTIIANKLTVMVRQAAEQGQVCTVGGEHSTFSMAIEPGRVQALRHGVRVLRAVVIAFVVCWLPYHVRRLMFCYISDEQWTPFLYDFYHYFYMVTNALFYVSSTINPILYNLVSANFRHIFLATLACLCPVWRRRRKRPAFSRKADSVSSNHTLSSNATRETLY
T2 sequence (O95665 whole entry): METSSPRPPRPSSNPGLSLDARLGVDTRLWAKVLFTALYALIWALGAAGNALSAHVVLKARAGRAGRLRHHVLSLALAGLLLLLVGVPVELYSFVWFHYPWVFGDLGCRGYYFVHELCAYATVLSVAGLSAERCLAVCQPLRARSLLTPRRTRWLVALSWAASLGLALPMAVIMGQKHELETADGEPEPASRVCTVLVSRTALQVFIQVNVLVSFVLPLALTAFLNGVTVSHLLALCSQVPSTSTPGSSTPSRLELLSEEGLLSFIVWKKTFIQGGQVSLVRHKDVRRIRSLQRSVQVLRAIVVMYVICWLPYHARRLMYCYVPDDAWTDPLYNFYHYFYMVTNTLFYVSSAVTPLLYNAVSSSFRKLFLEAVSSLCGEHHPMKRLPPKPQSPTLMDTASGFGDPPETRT

Row | Compound | IC50 (hNTS1 receptor) [nM] | IC50 (hNTS2 receptor) [nM] | Selectivity (hNTS2 receptor)
1 | CC(C)C[C@H](NC(=O)[C@H](Cc1ccc(O)cc1)NC(=O)[C@@H]1CC=CC[C@H](N)C(=O)N[C@@H](CCCNC(N)=O)C(=O)N[C@@H](CCCNC(N)=O)C(=O)N1)C(=O)O [compound 148, c[G(All)citrulline-citrullineG (All)]YL] (H-[AllylGly][Cit][Cit][AllylGly]YL-OH; staple 1-4) | > 100000 | 7900 | 13
2 | CC(C)C[C@H](NC(=O)[C@H](Cc1ccc(O)cc1)NC(=O)[C@@H]1CC=CC[C@H](N)C(=O)NCC(=O)N[C@@H](CCCCN)C(=O)N1)C(=O)O [compound 87, c[G(All)GKG(All)]YL] (H-[AllylGly]GK[AllylGly]YL-OH; staple 1-4) | > 100000 | 516 | >194
3 | NCCCC[C@@H]1NC(=O)CCC=CC[C@@H](C(=O)N[C@@H](Cc2ccc(Br)cc2)C(=O)N[C@@H](CC2CCCC2)C(=O)O)NC(=O)[C@H](CCCCN)NC1=O [compound 134, cK([Pentenoyl)KG(All)]F(4-bromo)A (cyclopentyl)] | > 100000 | 17.7 | 5650
4 | CC(C)C[C@H](NC(=O)[C@H](Cc1ccccn1)NC(=O)[C@@H]1CC=CC[C@H](N)C(=O)N[C@@H](CCCCN)C(=O)N[C@@H](CCCCN)C(=O)N1)C(=O)O [compound 165, c[G(All)KKG(All)]A(2-pyridyl)L] (H-[AllylGly]KK[AllylGly][2Pal]L-OH; staple 1-4) | > 100000 | 509 | 20
5 | CC(C)C[C@H](NC(=O)[C@H](CC1CCCC1)NC(=O)[C@@H]1CC=CC[C@H](N)C(=O)N[C@@H](CCCCN)C(=O)N[C@@H](CCCCN)C(=O)N1)C(=O)O [compound 142, c[G(All)KKG(All)]A (cyclopentyl)L] (H-[AllylGly]KK[AllylGly][Ala(cPent)]L-OH; staple 1-4) | > 100000 | 204 | 490
6 | NCCCC[C@@H]1NC(=O)[C@H](CCCCN)NC(=O)[C@@H](N)CC=CC[C@@H](C(=O)N[C@@H](Cc2ccc(O)cc2)C(=O)N[C@H](C(=O)O)C2CCCCC2)NC1=O [compound 30, c[G(All)KKG(All)]YChG] (H-[AllylGly]KK[AllylGly]Y[Chg]-OH; staple 1-4) | > 100000 | 955 | >104
7 | NCCCC[C@@H]1NC(=O)[C@H](CCCCN)NC(=O)[C@@H](N)CC=CC[C@@H](C(=O)N[C@@H](Cc2ccc(O)cc2)C(=O)N[C@@H](CC2CCCCCC2)C(=O)O)NC1=O [compound 68, c[G(All)KKG(All)]YA(cycloheptyl)] (H-[AllylGly]KK[AllylGly]Y[Ala(cHept)]-OH; staple 1-4) | > 100000 | 6.85 | >14 600
8 | CC(C)C[C@H](NC(=O)[C@H](Cc1ccc(O)cc1)NC(=O)C1(C)CCCC=CCCC(=O)N[C@@H](CCCCN)C(=O)N[C@@H](CCCCN)C(=O)N1)C(=O)O (stereo partly drawn) [compound 132, c[K(Pentenoyl)KG(alpha-Me-(4-pentenyl))]YL] | > 100000 | 136 | 733
9 | CC(C)C[C@H](NC(=O)[C@@H](Cc1c[nH]c2ccccc12)NC(=O)[C@@H]1CC=CC[C@H](N)C(=O)N[C@@H](CCCCN)C(=O)N[C@@H](CCCCN)C(=O)N1)C(=O)O [compound 43, c[G(All)KKG(All)]W*L] (H-[AllylGly]KK[AllylGly][dW]L-OH; staple 1-4) | > 100000 | 968 | >103.3
10 | CC(C)C[C@H](NC(=O)[C@H](Cc1cccnc1)NC(=O)[C@@H]1CC=CC[C@H](N)C(=O)N[C@@H](CCCCN)C(=O)N[C@@H](CCCCN)C(=O)N1)C(=O)O [compound 169, c[G(All)KKG(All)]A(3-pyridyl)L] (H-[AllylGly]KK[AllylGly][3Pal]L-OH; staple 1-4) | > 100000 | 234 | 427
11 | CC(C)C[C@H](NC(=O)[C@H](Cc1ccc(O)cc1)NC(=O)[C@@H]1CC=CC[C@H](NC(=O)[C@@H](N)CCCCN)C(=O)N[C@@H](CCCCN)C(=O)N[C@@H](CCCCN)C(=O)N1)C(=O)O [compound 156, Kc[G(All)KKG(All)]YL] (H-K[AllylGly]KK[AllylGly]YL-OH; staple 2-5) | > 100000 | 6.6 | 15244
12 | CC(C)C[C@H](NC(=O)[C@H](Cc1ccc(O)cc1)NC(=O)[C@H]1CC=CC[C@H](N)C(=O)N[C@@H](CCCCN)C(=O)N[C@@H](CCCCN)C(=O)N1)C(=O)O [compound 40, c[G(All)KKG*(All)]YL] (H-[AllylGly]KK[dAllylGly]YL-OH; staple 1-4) | > 100000 | 1200 | >85

Other lines, results leading:

Row | IC50 (hNTS1 receptor) [nM] | IC50 (hNTS2 receptor) [nM] | Selectivity (hNTS2 receptor) | Compound
13 | > 100000 | 4700 |  | CC(C)C[C@H](NC(=O)[C@@H](Cc1ccc(O)cc1)NC(=O)[C@@H]1CC=CC[C@H](N)C(=O)N[C@@H](CCCCN)C(=O)N[C@@H](CCCCN)C(=O)N1)C(=O)O [compound 21, c[G(All)KKG(All)]Y*L] (H-[AllylGly]KK[AllylGly][dY]L-OH; staple 1-4)
14 | > 100000 | 9100 | >11.0 | CC(C)C[C@H](NC(=O)[C@H](Cc1ccc(O)cc1)NC(=O)[C@@H]1CNC(=O)C[C@H](N)C(=O)N[C@@H](CCCCN)C(=O)N[C@@H](CCCCN)C(=O)N1)C(=O)O [compound 103, c[DKKDap]YL] (H-DKK[Dap]YL-OH; lactam 1-4)
15 | > 100000 | 3300 | >30.3 | CCC[C@H](NC(=O)[C@H](Cc1ccc(O)cc1)NC(=O)[C@@H]1CC=CC[C@H](N)C(=O)N[C@@H](CCCCN)C(=O)N[C@@H](CCCCN)C(=O)N1)C(=O)O [compound 29, c[G(All)KKG(All)]YNva] (H-[AllylGly]KK[AllylGly]Y[Nva]-OH; staple 1-4)
16 | > 100000 | 34.8 | 2871 | CC(C)C[C@H](NC(=O)[C@H](Cc1ccc(O)cc1)NC(=O)[C@H]1NC(=O)[C@H](CCCCN)NC(=O)[C@H](CCCCN)NC(=O)[C@@H](N)CSSC1(C)C)C(=O)O [compound 153, c[CKKPen]YL] (H-CKK[Pen]YL-OH; disulfide 1-4)
17 | > 100000 | 47.9 | >2087 | CC(C)C[C@H](NC(=O)[C@H](Cc1ccc(C(F)(F)F)cc1)NC(=O)[C@@H]1CC=CC[C@H](N)C(=O)N[C@@H](CCCCN)C(=O)N[C@@H](CCCCN)C(=O)N1)C(=O)O [compound 111, c[G(All)KKG(All)]F(4-CF3)L] (H-[AllylGly]KK[AllylGly][Phe(4-CF3)]L-OH; staple 1-4)
18 | > 100000 | 40.6 | >2466 | CC(C)C[C@H](NC(=O)[C@H](Cc1ccc(Cl)cc1)NC(=O)[C@@H]1CC=CC[C@H](N)C(=O)N[C@@H](CCCCN)C(=O)N[C@@H](CCCCN)C(=O)N1)C(=O)O [compound 114, c[G(All)KKG(All)]F(4-chloro)L] (H-[AllylGly]KK[AllylGly][Phe(4-Cl)]L-OH; staple 1-4)
19 | > 100000 | 10600 | >9.4 | CC(C)C[C@H](NC(=O)[C@H](Cc1ccc(O)cc1)NC(=O)[C@@H]1CC=CC[C@H](N)C(=O)N[C@@H](CCC(=O)O)C(=O)N[C@@H](CCCCN)C(=O)N1)C(=O)O [compound 88, c[G(All)EKG(All)]YL] (H-[AllylGly]EK[AllylGly]YL-OH; staple 1-4)
20 | > 100000 | 16500 | >6.1 | CC(C)C[C@H](NC(=O)[C@H](Cc1ccc(O)cc1)NC(=O)[C@@H]1CCNC(=O)CC[C@H](N)C(=O)N[C@@H](CCCCN)C(=O)N[C@@H](CCCCN)C(=O)N1)C(=O)O [compound 104, c[EKKDab]YL] (H-EKK[Dab]YL-OH; lactam 1-4)
21 | > 100000 | 76.9 | >1300 | CC(C)C[C@H](NC(=O)[C@H](Cc1ccc(O)cc1)NC(=O)[C@@H]1CC=CCCC[C@@](C)(N)C(=O)N[C@@H](CCCCN)C(=O)N[C@@H](CCCCN)C(=O)N1)C(=O)O [compound 90, c[G*(alpha-Me-(4-Pentenyl))KKG(All)]YL] (H-[R5]KK[AllylGly]YL-OH; staple 1-4)
22 | > 100000 | 214 | 468 | CC(C)C[C@H](NC(=O)[C@H](Cc1ccc(O)cc1)NC(=O)[C@@H]1CC=CC[C@H](N)C(=O)N[C@@H](CCCCN)C(=O)N[C@@H](CCCCCN)C(=O)N1)C(=O)O [compound 149, c[G(All)KhomolysineG(All)]YL] (H-[AllylGly]K[hLys][AllylGly]YL-OH; staple 1-4)
23 | > 100000 | 86.3 | >1159 | COc1ccc(C[C@H](NC(=O)[C@@H]2CC=CC[C@H](N)C(=O)N[C@@H](CCCCN)C(=O)N[C@@H](CCCCN)C(=O)N2)C(=O)N[C@@H](CC(C)C)C(=O)O)cc1 [compound 75, c[G(All)KKG(All)]Y(OMe)L] (H-[AllylGly]KK[AllylGly]Y(Me)L-OH; staple 1-4)
24 | > 100000 | 15.5 | >6452 | CC(C)C[C@H](NC(=O)[C@H](Cc1ccc(I)cc1)NC(=O)[C@@H]1CC=CC[C@H](N)C(=O)N[C@@H](CCCCN)C(=O)N[C@@H](CCCCN)C(=O)N1)C(=O)O [compound 78, c[G(All)KKG(All)]F(4-iodo)L] (H-[AllylGly]KK[AllylGly][Phe(4-I)]L-OH; staple 1-4)
25 | > 100000 | 180 | >557.2 | CC(C)C[C@H](NC(=O)[C@H](Cc1ccc(O)cc1)NC(=O)[C@@H]1CC=CC[C@H](N)C(=O)N[C@@H](CN)C(=O)N[C@@H](CCCCN)C(=O)N1)C(=O)O [compound 81, c[G(All)DapKG(All)]YL] (H-[AllylGly][Dap]K[AllylGly]YL-OH; staple 1-4)
